Entries after “also recorded” stand apart in the source; their conditions may differ. One block for each compound: values may come before it.
Assays:
tropoelastin mRNA = assay: RT-PCR assay of tropoelastin mRNA; type: cell-based, human; conditions: 10 nmol/L insulin; for effect of inhibitor on insulin-induced up-regulation of tropoelastin mRNA: pretreated 30 minutes and maintained with inhibitor
Experimental: At the end of the treatments, total RNA was extracted from quadruplicate cultures in each experimental group using the RNEASY® (RNA isolation) Mini Kit. One microgram total RNA from each sample was added to one-step RT-PCR (One-Step RT-PCR Kit; Qiagen, Inc.). The reactions were set up in a total volume of 25 μL. The reverse transcription step was performed for elastin and 18S ribosomal RNA reactions at 50° C. for 30 minutes, followed by 15 minutes at 95° C. The elastin PCR reaction using sense primer 5′[…]-3′ (SEQ ID NO 1) and antisense primer 5′[…]3′ (SEQ ID NO 2). The products were analyzed using ethidium bromide staining and densitometry-based image analysis using an optical system (Gel Doc 1000; Bio-Rad Laboratories, Inc., Hercules, Calif.). The amount of tropoelastin mRNA was standardized relative to the amount of 18S ribosomal RNA and expressed as percentage of control values.

[1] = system: human aortic SMCs (AoSMCs); assay: Immunocytochemistry and morphometry of elastic fibers in AoSMC cultures; type: cell-based; conditions: for effect of inhibitor on elastogenic effects of insulin (immunostained elastic fibers, [3H]-valine-labeled insoluble elastin): 2% FBS; for effect of inhibitor on elastogenic effects of IGF-1: 10 nmol/L IGF-1, parallel AoSMC cultures
Description: Human aortic SMCs (AoSMCs) were propagated from small fragments of aortic media collected from autopsy. Guidelines for the protection of human subjects of the US Department of Health and Human Services and of the Declaration of Helsinki were followed in obtaining tissues for this investigation. Cells migrating from the cultured explants of aortic media were routinely passaged (up to three times) via trypsinization using 0.2% trypsin-0.02% EDTA, and were maintained in DMEM supplemented with 5% FBS and 1% antibiotic-antimycotic mix. The second and third passages of cells that migrated from the original explants of aortic media were routinely probed with antibodies recognizing the SMC-specific α-actin to monitor the preservation of the SMC phenotype. All cells were initially plated at 100,000 cells per dish for immediate confluency so they would begin extracellular matrix production. The cell cultures committed to particular experiments were then transferred to DMEM containing either 2% FBS or to serum-free medium before initiation of particular treatments.
At the end of treatments, confluent cultures of AoSMCs were fixed in cold 100% methanol at −20° C. for 30 minutes, and blocked with 1% normal goat serum for 1 hour. The cultures were then incubated for 1 hour with 10 μg/mL polyclonal antibodies to tropoelastin and/or with 10 μg/mL monoclonal antibody to SMC-specific α-actin. All cultures were then incubated for another hour with the respective fluorescein-conjugated secondary antibodies (fluorescein-conjugated goat anti-rabbit or anti-mouse). Nuclei were counterstained with red-fluorescent propidium iodide or blue-fluorescent DAPI. The cultures were then mounted in ethanol and examined using a microscope (Eclipse E1000; Nikon Instruments, Inc., Melville, N.Y.) attached to a cooled CCD camera (Retiga EX; QImaging Corp., Vancouver, BC, Canada) and a computer-generated morphometric analysis system (Image-Pro Plus software; Media Cybernetics, Inc., Bethesda, Md.). In each analyzed group, 50 low-power fields from three separate cultures were analyzed, and the areas occupied by immunodetectable elastic fibers were expressed as a percentage of the entire analyzed field.

tropoelastin = assay: Metabolically labeled tropoelastin in cell extracts and conditioned media (secretion); type: cell-based, human; conditions: 1-hour preincubation with LY294002, 10 nmol/L insulin
Experimental: Cells were plated in 35-mm dishes at a density of 100,000 cells per dish and were grown to confluency. Two microcuries [3H]-valine per milliliter fresh medium supplemented with 2% FBS was added 2 hours before the indicated treatments. At the end of each experiment, the conditioned medium was collected and subjected to immunoprecipitation using anti-tropoelastin antibody. The cell layers were washed with PBS and incubated using radioimmunoprecipitation lysis buffer for 10 minutes on ice. After centrifugation, the supernatants were collected and subjected to immunoprecipitation using anti-tropoelastin antibody. […] Final results (counts per minute) reflecting the total amount of [3H]-valine-labeled insoluble elastin in individual cultures were normalized per their DNA contents (assessed using the Qiagen […] isolation) Tissue Kit) and expressed as percentage of control values. At the end of all treatments, cells from quadruplicate cultures in each experimental group were lysed using NP40 cell lysis buffer (Invitrogen Corp.). Thirty micrograms of protein extracts from each sample was suspended in standard sample buffer, resolved on 4% to 12% gradient SDS-PAGE gels, transferred to nitrocellulose membranes, and subjected to Western blotting using antibodies. At the end of indicated treatments, the cultured cells were lysed as described, and 300 μL aliquots of cell extracts containing […] were incubated at 4° C. for 3 hours with the aliquots of protein G bound DYNABEADS® (Invitrogen Corp.) that were conjugated with either rabbit polyclonal anti-tropoelastin, goat polyclonal anti-Glut10, or rabbit polyclonal anti-S-Gal antibodies. The beads carrying the final immunoprecipitation products were then washed with PBS, resuspended in sample buffer, and boiled for 5 minutes. The released proteins were then resolved on SDS-PAGE gel and subjected to Western blotting using indicated antibodies.

S-Gal/EBP = assay: Association of tropoelastin with S-Gal/EBP chaperone (Western blot, co-immunoprecipitation, double immunostaining); type: cell-based, human
Experimental: Cultures fixed for 30 minutes in cold 100% methanol were then blocked with 1% glycine for 15 minutes, followed by 2% bovine serum albumin with 0.1% Triton X-100 for another hour at room temperature. They were finally exposed for 1 hour to the mixture of 5 μg/mL polyclonal anti-S-Gal/EBP and 5 μg/mL monoclonal anti-tropoelastin antibodies. All cultures were then incubated for another hour with the mixture of fluorescein-conjugated and rhodamine-conjugated secondary antibodies. Nuclei were counterstained with DAPI. At the end of all treatments, cells from quadruplicate cultures in each experimental group were lysed using NP40 cell lysis buffer (Invitrogen Corp.). Thirty micrograms of protein extracts from each sample was suspended in standard sample buffer, resolved on 4% to 12% gradient SDS-PAGE gels, transferred to nitrocellulose membranes, and subjected to Western blotting using antibodies. At the end of indicated treatments, the cultured cells were lysed as described, and 300 μL aliquots of cell extracts containing […] were incubated at 4° C. for 3 hours with the aliquots of protein G bound DYNABEADS® (Invitrogen Corp.) that were conjugated with either rabbit polyclonal anti-tropoelastin, goat polyclonal anti-Glut10, or rabbit polyclonal anti-S-Gal antibodies. The beads carrying the final immunoprecipitation products were then washed with PBS, resuspended in sample buffer, and boiled for 5 minutes. The released proteins were then resolved on SDS-PAGE gel and subjected to Western blotting using indicated antibodies.

FoxO1 = FoxO1 binding to elastin gene promoter DNA probe (FRE) on DYNABEADS; type: cell-based, human; conditions: AoSMCs treated 30 minutes with 10 nmol/L insulin, or preincubated with LY294002
Experimental: Cells were then scraped, and their nuclear extracts were pre-pared using an isolation kit (Active Motif, Inc.). […] The equal molar amounts of both single-stranded DNA oligonucleotides were annealed in Tris-EDTA buffer (10 mmol/L Tris-HCl, 1 mmol/L EDTA (pH 8.0)) to form the double-stranded DNA probe. […] All preparations were subsequently incubated for 2 hours in 200 μL binding buffer (50 mmol/L KCl, 10% glycerol, 20 mmol/L HEPES (pH 7.9), 1 mmol/L MgCl2, 1 mmol/L DTT, 0.1 μg poly(DI-DC) (polydeoxyinosinic-deoxycytidylic), and proteinase inhibitors). After binding, the beads were washed four times in the same binding buffer, without poly(DI-DC). The bound proteins were resolved using 8% SDS-PAGE and probed using Western blotting with the anti-FoxO1 monoclonal antibody.

[2] = 24-hour AoSMC cultures, 10 nmol/L insulin
[3] = 10 nmol/L IGF-1, 24-hour AoSMC cultures

Compound: CC(C)(C)c1cc(C=C(C#N)C#N)cc(Br)c1O [AG1024]
effect of inhibitor on insulin-induced up-regulation of tropoelastin mRNA (tropoelastin mRNA): abrogated
effect of inhibitor on elastogenic effects of insulin (immunostained elastic fibers, [3H]-valine-labeled insoluble elastin) [1, 2]: eliminated the elastogenic effects

Compound: COc1ccc(CNc2nc(N(CCO)CCO)nc3c2ncn3C(C)C)cc1 [CVT313]
effect of cdk-2 inhibition on elastogenic effect of IGF-1 [1, 3]: abolished the final elastogenic effect
effect of cdk-2 inhibition on elastogenic effect of insulin ([1]; 10 nmol/L insulin, 24-hour AoSMC cultures): did not diminish the elastogenic effect; also recorded: still exhibited heightened deposition of elastic fibers

binding of FoxO1 from nuclear extracts to elastin promoter FRE DNA probe (FoxO1): bound abundant FoxO1 proteins
Compound: O=c1cc(N2CCOCC2)oc2c(-c3ccccc3)cccc12 [LY294002]
effect of inhibitor on insulin-induced up-regulation of tropoelastin mRNA (tropoelastin mRNA): abrogated
effect of PI3K inhibition on insulin-induced changes in tropoelastin levels (tropoelastin): could not be observed
effect of inhibitor on elastogenic effects of IGF-1 [1]: abolished the elastogenic effects; also recorded: also eliminated
effect of inhibitor on elastogenic effects of insulin (immunostained elastic fibers, [3H]-valine-labeled insoluble elastin) [1, 2]: eliminated the elastogenic effects
insulin-induced tropoelastin/S-Gal/EBP co-localization in cells preincubated with inhibitor (S-Gal/EBP; LY294002 preincubation (data not shown)): could not induce such tropoelastin/S-Gal/EBP co-localization
effect of PI3K inhibitor on insulin-induced S-Gal/EBP coimmunoprecipitation (S-Gal/EBP; pretreated 30 minutes with PI3K inhibitor): could not be induced; also recorded: could not induce the same effect

Compound: OC[C@H]1O[C@@H](n2cnc3cc(Cl)c(Cl)cc32)[C@H](O)[C@@H]1O [dichloro-benzimidazole riboside, dichlorobenzimidazole riboside]
effect of transcription inhibitor on insulin-induced up-regulation of tropoelastin mRNA (tropoelastin mRNA; pretreatment with 50 μmol/L inhibitor): completely abolished

Compound: COc1cc([C@@H]2c3cc4c(cc3[C@H](O)[C@H]3COC(=O)[C@@H]23)OCO4)cc(OC)c1OC [picropodophyllin]
effect of inhibitor on insulin-induced up-regulation of tropoelastin mRNA (tropoelastin mRNA): did not inhibit
effect of inhibitor on elastogenic effects of IGF-1 [1]: also eliminated

Compound: IGF-1
elastogenic effect of IGF-1 [1, 3]: elastogenic effects

Reference: US20150359854A1 (HUMAN MATRIX SCIENCES, LLC, priority 2012, published 2015)
